A value given as a limit tells only on which side of the number the result lay.

Assay [1] has as its target T1, GK-GKRP (interaction between glucokinase and glucokinase regulatory protein) (Homo sapiens, UniProt Q14397).
T1 construct: made in house; host or cells: GKRP: baculovirus system
T1 sequence (Q14397 1-625): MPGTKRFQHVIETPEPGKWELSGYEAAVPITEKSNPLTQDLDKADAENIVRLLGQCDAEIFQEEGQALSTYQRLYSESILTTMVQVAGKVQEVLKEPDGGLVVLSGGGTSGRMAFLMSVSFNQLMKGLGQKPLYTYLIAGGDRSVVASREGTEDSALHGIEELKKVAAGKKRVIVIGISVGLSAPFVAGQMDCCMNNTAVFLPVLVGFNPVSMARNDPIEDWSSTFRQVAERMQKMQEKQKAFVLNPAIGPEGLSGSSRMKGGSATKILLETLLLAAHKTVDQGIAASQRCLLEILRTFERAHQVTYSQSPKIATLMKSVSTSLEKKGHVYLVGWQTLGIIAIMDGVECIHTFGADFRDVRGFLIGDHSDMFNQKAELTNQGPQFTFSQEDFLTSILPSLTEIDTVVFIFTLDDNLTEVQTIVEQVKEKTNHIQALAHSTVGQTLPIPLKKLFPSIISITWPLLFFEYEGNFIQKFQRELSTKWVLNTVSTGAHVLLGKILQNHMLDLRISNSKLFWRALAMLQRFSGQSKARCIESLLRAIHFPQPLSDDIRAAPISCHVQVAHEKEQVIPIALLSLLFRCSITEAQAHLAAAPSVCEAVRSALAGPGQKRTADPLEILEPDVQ
In words: GK-GKRP Binding Assay (Binding), AlphaScreen. Particulars: avi-tagged GKRP, GK-fluorescein, AlphaScreen beads, 1 μM sorbitol-6-phosphate; read-out: GK-GKRP IC50 (Binding). The method, boiled down:
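Biotinylated, C-terminally avi-tagged human GKRP was preincubated 20 min at room temperature with compound, then fluorescein-labelled human hepatic GK was added (6 nM in the added buffer). The mix was incubated 2 h at room temperature in the dark before AlphaScreen reading. Buffer was 20 mM Tris pH 7.5, 0.05% BSA, 1 mM DTT, 1 μM sorbitol-6-phosphate.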
For orientation: In Alpha technology, singlet oxygen from a donor bead excites a nearby acceptor bead.

For assay [2], the target named is T2, GK-GKRP (glucokinase / glucokinase regulatory protein) (Homo sapiens, UniProt Q14397).
T2 sequence (Q14397 1-625): T1 sequence (Q14397 1-625)
In words: GKRP LC MS/MS Biochemical Assay (LCMS/MS). Conditions: formation of 13C-glucose-6-phosphate from 13C-glucose by LC MS/MS, human His-hepatic GK, fructose-6-phosphate. The gist of the method:
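Human His-tagged hepatic GK (30 nM working stock, 5×) with GKRP in 50 mM Tris pH 7.5, 4 mM MgCl2, 6% DMSO; compound preincubated 30 min, then GK added for 30 min at room temperature. Acetonitrile-stopped; 13C-glucose-6-phosphate formed from 13C-glucose quantified by LC MS/MS.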

Usually IC50 stands for the point on the concentration scale where inhibition reaches its midpoint. A word on the EC50: it is the concentration giving half of the maximal effect. Lower therefore signals a more potent agent. As to `C#Cc1ccccc1C(NS(=O)(=O)c1ccc2c(c1)OCCCO2)c1cc2ccccc2o1` (racemic) [Example 8, N-(1-benzofuran-2-yl(2-ethynylphenyl)methyl)-3,4-dihydro-2H-1,5-benzodioxepine-7-sulfonamide], the IC50 in assay [1] amounted to 47 nM. In assay [2], this compound gave a concentration for a half-maximal effect (EC50) of 72 nM.
With `Cc1cccc(F)c1C(NS(=O)(=O)c1ccc2c(c1)OCCCO2)c1cc2ccccc2o1` (racemic) [Example 5, N-(1-benzofuran-2-yl(2-fluoro-6-methylphenyl)methyl)-3,4-dihydro-2H-1,5-benzodioxepine-7-sulfonamide], the 50% inhibitory concentration (IC50) in assay [1] worked out at 1000 nM. The same compound registered an EC50 in assay [2] of 790 nM.
Consider `CSc1ccccc1[C@H](NS(=O)(=O)c1ccc2c(c1)OCCCO2)c1cc2ccccc2s1` (single isomer, unassigned) [Example 41 Peak #1], for which the IC50 in assay [1] was determined as 140 nM. Moreover, the EC50 in assay [2] is 40 nM.
Take `CSc1ccccc1[C@H](NS(=O)(=O)c1ccc2c(c1)OCCCO2)c1cc2ccncc2s1` (single isomer, unassigned) [Example 64 Peak #1]: the IC50 in assay [1] was determined as 430 nM. In addition, the midpoint of the response in assay [2], the EC50, lay at 180 nM.
With `O=S(=O)(NC(c1ncccn1)c1cc2ccccc2o1)c1ccc2c(c1)OCCCO2` (racemic) [Example 29, N-(1-benzofuran-2-yl(2-pyrimidinyl)methyl)-3,4-dihydro-2H-1,5-benzodioxepine-7-sulfonamide], in assay [1], the IC50 amounted to 1800 nM. The compound further gave an EC50 in assay [2] of 990 nM.
`C[C@](O)(c1ccnc(-c2cccc3cc([C@H](NS(=O)(=O)c4ccc5c(c4)OCCCO5)c4ccccc4)sc23)c1)C(F)(F)F` (single isomer, unassigned) [Example 70 Peak #2]: the IC50 in assay [1] amounted to 6 nM. Besides, the EC50 in assay [2] worked out at 22 nM.
With `Cc1cccc(C)c1C(NS(=O)(=O)c1ccc2c(c1)OCCCO2)c1cc2ccccc2o1` (racemic) [Example 10, N-(1-benzofuran-2-yl(2,6-dimethylphenyl)methyl)-3,4-dihydro-2H-1,5-benzodioxepine-7-sulfonamide], in assay [1], the IC50 was determined as 4100 nM. Further, the EC50 in assay [2] was found to be 3800 nM.
Consider `COc1cccnc1C(NS(=O)(=O)c1ccc2c(c1)OCCCO2)c1cc2cccnc2s1` (racemic) [Example 49, N-((3-methoxy-2-pyridinyl)(thieno[2,3-b]pyridin-2-yl)methyl)-3,4-dihydro-2H-1,5-benzodioxepine-7-sulfonamide], for which the IC50 in assay [1] worked out at 93 nM. For the same compound, a half-maximal response in assay [2] (EC50) required 150 nM.
`O=S(=O)(N[C@H](c1cc2ccccc2o1)c1ccccc1Cl)c1ccc2c(c1)OCCCO2` (single isomer, unassigned) [Example 20 Peak #1]: the IC50 in assay [1] is 5700 nM. Moreover, in assay [2], the EC50 is over 20000 nM.
The like results for `O=S(=O)(NC(c1ccccc1)c1nc2ccccc2s1)c1ccc2c(c1)OCCCO2` (racemic) [Example 59, N-(1,3-benzothiazol-2-yl(phenyl)methyl)-3,4-dihydro-2H-1,5-benzodioxepine-7-sulfonamide] were, in that order, 630 nM and 300 nM.
The like results for `CCc1ccccc1C(NS(=O)(=O)c1ccc2c(c1)OCCCO2)c1cc2ccccc2s1` (racemic) [Example 37, N-(1-benzothiophen-2-yl(2-ethylphenyl)methyl)-3,4-dihydro-2H-1,5-benzodioxepine-7-sulfonamide] were, in that order, 300 nM and 160 nM.
As to `C=Cc1ccccc1C(NS(=O)(=O)c1ccc2c(c1)OCCCO2)c1cc2ccccc2s1` (racemic) [Example 38, N-(1-benzothiophen-2-yl(2-ethenylphenyl)methyl)-3,4-dihydro-2H-1,5-benzodioxepine-7-sulfonamide], in assay [1], the IC50 came out at 25 nM. The compound also yielded an EC50 in assay [2] of 31 nM.
The corresponding values for `C#Cc1ccccc1C(NS(=O)(=O)c1ccc2c(c1)OCCCO2)c1cc2ccccc2s1` (racemic) [Example 39, N-(1-benzothiophen-2-yl(2-ethynylphenyl)methyl)-3,4-dihydro-2H-1,5-benzodioxepine-7-sulfonamide] are 17 nM and 37 nM.
Turning to `O=S(=O)(NC(c1ccccc1)c1cc2cccc(-c3ccccc3)c2s1)c1ccc2c(c1)OCCCO2` (racemic) [Example 73, N-(phenyl(7-phenyl-1-benzothiophen-2-yl)methyl)-3,4-dihydro-2H-1,5-benzodioxepine-7-sulfonamide], the IC50 in assay [1] came to 1200 nM. The compound further registered an EC50 in assay [2] of 1000 nM.
The corresponding values for `COc1ccccc1C(NS(=O)(=O)c1ccc2c(c1)OCCCO2)c1nc2cccnc2s1` (racemic) [Example 67, N-((2-methoxyphenyl)([1,3]thiazolo[5,4-b]pyridin-2-yl)methyl)-3,4-dihydro-2H-1,5-benzodioxepine-7-sulfonamide] are 58 nM and 95 nM.
As for `C[C@@](O)(c1ccnc(-c2cccc3cc([C@@H](NS(=O)(=O)c4ccc5c(c4)OCCCO5)c4ccccc4)sc23)c1)C(F)(F)F` (single isomer, unassigned) [Example 70 Peak #3], the IC50 in assay [1] was 330 nM. For the same compound, in assay [2], it took 170 nM to reach a half-maximal effect (EC50).
`O=S(=O)(NC(c1cc2ccccc2o1)c1ccccc1C(F)(F)F)c1ccc2c(c1)OCCCO2` (racemic) [Example 12, N-(1-benzofuran-2-yl(2-(trifluoromethyl)phenyl)methyl)-3,4-dihydro-2H-1,5-benzodioxepine-7-sulfonamide]: in assay [1], the IC50 is 1000 nM. Also, the EC50 in assay [2] was found to be 320 nM.
Turning to `CSc1ccccc1[C@@H](NS(=O)(=O)c1ccc2c(c1)OCCCO2)c1nc2cccnc2s1` (single isomer, unassigned) [Example 65 Peak #2], in assay [1], the IC50 was 7 nM. In addition, the EC50 in assay [2] is 15 nM.
For the compound `CSc1ccccc1[C@H](NS(=O)(=O)c1ccc2c(c1)OCCCO2)c1cc2ccccc2o1` (single isomer, unassigned) [Example 19 Peak #1], in assay [1], the IC50 turned out to be 970 nM. This compound had an EC50 in assay [2] of 290 nM.
Take `O=S(=O)(NC(c1cc2ccccc2o1)c1ccccc1Cl)c1ccc2c(c1)OCCCO2` (racemic) [Example 20, N-(1-benzofuran-2-yl(2-chlorophenyl)methyl)-3,4-dihydro-2H-1,5-benzodioxepine-7-sulfonamide]: the 50% inhibitory concentration (IC50) in assay [1] was 220 nM. The compound also showed an EC50 in assay [2] of 70 nM.
Consider `O=S(=O)(NC(c1ccccc1)c1cc2ccccc2s1)c1ccc2c(c1)OCCCO2` (racemic) [Example 57, N-(1-benzothiophen-2-yl(phenyl)methyl)-3,4-dihydro-2H-1,5-benzodioxepine-7-sulfonamide], for which, in assay [1], the IC50 was 310 nM. Also, the EC50 in assay [2] came out at 110 nM.
The like results for `Cc1ccccc1C(NS(=O)(=O)c1ccc2c(c1)OCCCO2)c1cc2ccccc2s1` (racemic) [Example 36, N-(1-benzothiophen-2-yl(2-methylphenyl)methyl)-3,4-dihydro-2H-1,5-benzodioxepine-7-sulfonamide] were, in that order, 290 nM and 150 nM.
With `CSc1ccccc1C(NS(=O)(=O)c1ccc2c(c1)OCCCO2)c1cc2ccncc2s1` (racemic) [Example 64, N-((2-(methylsulfanyl)phenyl)(thieno[2,3-c]pyridin-2-yl)methyl)-3,4-dihydro-2H-1,5-benzodioxepine-7-sulfonamide], the IC50 in assay [1] worked out at 4 nM. This compound also had a 50% effective concentration (EC50) in assay [2] of 20 nM.
On to `O=S(=O)(NC(c1cc2ccccc2o1)c1ccccc1CO)c1ccc2c(c1)OCCCO2` (racemic) [Example 15, N-(1-benzofuran-2-yl(2-(hydroxymethyl)phenyl)methyl)-3,4-dihydro-2H-1,5-benzodioxepine-7-sulfonamide], for which, in assay [1], the half-inhibitory concentration (IC50) was 4600 nM. In assay [2], this compound had an EC50 of 1600 nM.
On to `COc1ccc2sc(C(NS(=O)(=O)c3ccc4c(c3)OCCCO4)c3ccccc3)cc2c1` (racemic) [Example 58, N-((5-methoxy-1-benzothiophen-2-yl)(phenyl)methyl)-3,4-dihydro-2H-1,5-benzodioxepine-7-sulfonamide], for which, in assay [1], the IC50 turned out to be 790 nM. The midpoint of the response in assay [2], the EC50, lay at 200 nM.
In the case of `C=Cc1ccccc1C(NS(=O)(=O)c1ccc2c(c1)OCCCO2)c1cc2ccccc2o1` (racemic) [Example 7, N-(1-benzofuran-2-yl(2-ethenylphenyl)methyl)-3,4-dihydro-2H-1,5-benzodioxepine-7-sulfonamide], the IC50 in assay [1] was 98 nM. In addition, a half-maximal effect in assay [2] (EC50) was put at 45 nM.
For `O=S(=O)(NC(c1ccccc1)c1cc2cccc(-c3ccccn3)c2s1)c1ccc2c(c1)OCCCO2` (racemic) [Example 71, N-(phenyl(7-(2-pyridinyl)-1-benzothiophen-2-yl)methyl)-3,4-dihydro-2H-1,5-benzodioxepine-7-sulfonamide], in assay [1], the half-inhibitory concentration (IC50) turned out to be 540 nM. Also, in assay [2], the EC50 is 290 nM.

The values above are taken from patent US20140155415A1, “BENZ[…] BENZODIOXINE COMPOUNDS THAT INTERACT WITH G[…] FOR THE TREATMENT OF DIABETES” (priority 2011, published 2014).
